Measured values from patent US20230026271A1, “Piperazine Compounds for Inhibiting CPS1” (Eisai R&D Management Co., Ltd., priority 2019, published 2023).

Target: T1, CPS1 (Homo sapiens, UniProt P31327)
T1 construct: The full length, human CPS1 gene was cloned into pFastBac HTA; His6 (from the pFastBac HTA vector); made in house; host or cells: SF21 insect cells (baculovirus, Bac-to-bac)
T1 sequence (P31327 39-1500): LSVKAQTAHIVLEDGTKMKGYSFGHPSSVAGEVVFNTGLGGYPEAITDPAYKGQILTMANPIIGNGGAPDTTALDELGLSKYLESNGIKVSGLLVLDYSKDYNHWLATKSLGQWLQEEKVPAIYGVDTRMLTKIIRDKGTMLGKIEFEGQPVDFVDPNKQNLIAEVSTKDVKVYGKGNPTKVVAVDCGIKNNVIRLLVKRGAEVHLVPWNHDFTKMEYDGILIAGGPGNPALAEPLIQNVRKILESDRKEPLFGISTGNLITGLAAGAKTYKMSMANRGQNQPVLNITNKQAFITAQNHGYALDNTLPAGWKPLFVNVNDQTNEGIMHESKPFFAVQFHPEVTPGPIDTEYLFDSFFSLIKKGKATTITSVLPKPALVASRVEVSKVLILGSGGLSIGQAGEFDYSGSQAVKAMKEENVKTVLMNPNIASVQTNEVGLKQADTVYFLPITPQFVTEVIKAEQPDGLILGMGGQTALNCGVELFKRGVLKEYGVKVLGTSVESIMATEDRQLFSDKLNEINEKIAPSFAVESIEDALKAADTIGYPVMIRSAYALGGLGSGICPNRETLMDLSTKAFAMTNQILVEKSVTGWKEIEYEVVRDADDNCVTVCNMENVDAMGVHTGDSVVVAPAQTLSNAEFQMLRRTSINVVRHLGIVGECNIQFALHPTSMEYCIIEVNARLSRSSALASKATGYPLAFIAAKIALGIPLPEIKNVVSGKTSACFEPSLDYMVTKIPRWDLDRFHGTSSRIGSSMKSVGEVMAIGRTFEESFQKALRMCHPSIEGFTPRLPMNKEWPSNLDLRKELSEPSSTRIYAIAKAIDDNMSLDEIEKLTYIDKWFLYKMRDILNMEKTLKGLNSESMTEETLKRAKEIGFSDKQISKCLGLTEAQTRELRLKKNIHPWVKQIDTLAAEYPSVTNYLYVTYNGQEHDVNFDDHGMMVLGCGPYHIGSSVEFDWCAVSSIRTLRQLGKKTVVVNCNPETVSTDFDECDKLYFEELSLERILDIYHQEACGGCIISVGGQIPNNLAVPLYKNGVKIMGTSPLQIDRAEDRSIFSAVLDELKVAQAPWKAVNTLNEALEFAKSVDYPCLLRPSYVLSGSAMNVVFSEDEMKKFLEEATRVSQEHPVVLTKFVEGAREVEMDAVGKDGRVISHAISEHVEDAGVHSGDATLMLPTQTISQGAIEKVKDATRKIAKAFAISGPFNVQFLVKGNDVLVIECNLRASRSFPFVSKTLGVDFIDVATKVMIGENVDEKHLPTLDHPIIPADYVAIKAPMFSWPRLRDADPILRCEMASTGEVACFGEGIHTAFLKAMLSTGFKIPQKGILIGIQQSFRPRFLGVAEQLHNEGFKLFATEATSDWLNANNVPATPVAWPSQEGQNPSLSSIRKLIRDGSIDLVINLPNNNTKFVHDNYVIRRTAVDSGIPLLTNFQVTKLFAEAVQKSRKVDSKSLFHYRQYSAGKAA
Test: ADP-Glo endpoint assay measuring the ATPase activity of CPS1
Assay type: biochemical
Conditions: geometric mean of a minimum of two values; 50 nM CPS1, 10 μM ATP, 0.2 mM NAG, 60 min at room temperature; read-out: ADPGlo IC50
How it was run: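 Full-length human His-tagged CPS1 from SF21 insect cells, 50 nM, preincubated 20 min with compound in pH 7.0 HEPES buffer containing KHCO3, (NH4)2SO3, MgCl2 and 0.2 mM NAG. Reaction started with 10 μM ATP, 60 min at room temperature; ADP formed detected by ADP-Glo luminescence.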

| SMILES | IC50 |
| --- | --- |
| COc1ccc(OC)c2[nH]c(C(=O)N3CCN(C(=O)Cc4c[nH]c5ccccc45)CC3)cc12 [Compound 64, 1-(4-(4,7-dimethoxy-1H-indole-2-carbonyl)piperazin-1-yl)-2-(1H-indol-3-yl)ethanone] | 3.72 µM |
| COc1ccc(C(=O)N2[C@H](C)CN(C(=O)c3ccc(O)cc3F)C[C@H]2C)c(F)c1 [Compound 65, ((2R,6R)-4-(2-fluoro-4-hydroxybenzoyl)-2,6-dimethylpiperzin-1-yl)(2-fluoro-4-methoxyphenyl)methanone] | 3.79 µM |
| COc1ccc(C(=O)N2C[C@@H](C)N(C(=O)c3ccc(Cl)cc3F)[C@H](C)C2)c(F)c1 [Compound 66, ((3R,5R)-4-(4-chloro-2-fluorobenzoyl)-3,5-dimethylpiperazin-1-yl)(2-fluoro-4-methoxyphenyl)methanone] | 4.91 µM |
| COc1ccc(C(=O)N2C[C@@H](C)N(C(=O)c3cc(OC)ccc3F)[C@H](C)C2)c(F)c1 [Compound 67, ((2R,6R)-4-(2-fluoro-4-methoxybenzoyl)-2,6-dimethylpiperazin-1-yl)(2-fluoro-5-methoxyphenyl)methanone] | 5.15 µM |
| COc1ccc(C(=O)N2CC(C)N(C(=O)c3ccc(OC)cc3F)C(C)C2)c(F)c1 (stereo not drawn) [Compound 68, (2,6-dimethylpiperazine-1,4-diyl)bis((2-fluoro-4-methoxyphenyl)methanone)] | 6.34 µM |
| COc1ccc(C(=O)N2[C@H](C)CN(C(=O)c3ccc4c(c3)NCC4)C[C@H]2C)c(F)c1 [Compound 69, ((3R,5R)-4-(2-fluoro-4-methoxybenzoyl)-3,5-dimethylpiperazin-1-yl)(indolin-6-yl)methanone] | 6.43 µM |
| COc1ccc(C(=O)N2C[C@@H](C)N(C(=O)c3ccc(C)c(O)c3)[C@H](C)C2)c(F)c1 [Compound 70] | 8.71 µM |
| COc1ccc(C(=O)N2CC(C)N(C(=O)c3ccc(OC)cc3F)CC2C)c(F)c1 (stereo not drawn) [Compound 71] | 9.97 µM |
| COc1ccc(C(=O)N2[C@H](C)CN(C(=O)c3ccc(OC)c(O)c3)C[C@H]2C)c(F)c1 [Compound 72, ((3R,5R)-4-(2-fluoro-4-methoxybenzoyl)-3,5-dimethylpiperazin-1-yl)(3-hydroxy-4-methoxyphenyl)methanone] | 11.5 µM |
| COc1ccc(C(=O)N2C[C@@H](C)N(C(=O)c3ccc4cc[nH]c4c3F)[C@H](C)C2)c(F)c1 [Compound 73, (7-fluoro-1H-indol-6-yl)((2R,6R)-4-(2-fluoro-4-methoxybenzoyl)-2,6-dimethylpiperazin-1-yl)methanone] | 11.6 µM |
| COc1ccc(C(=O)N2C[C@@H](C)N(C(=O)c3ccc4c(c3)CCCO4)[C@H](C)C2)c(F)c1 [Compound 74, ((3R,5R)-4-(chroman-6-carbonyl)-3,5-dimethylpiperazin-1-yl)(2-fluoro-4-methoxyphenyl)methanone] | 15.8 µM |
| COc1ccc(C(=O)N2C[C@@H](C)N(C(=O)c3cccc(O)c3F)[C@H](C)C2)c(F)c1 [Compound 75, ((3R,5R)-4-(2-fluoro-3-hydroxybenzoyl)-3,5-dimethylpiperazin-1-yl)(2-fluoro-4-methoxyphenyl)methanone] | 16.1 µM |
| COc1ccc(C(=O)N2C[C@@H](C)N(C(=O)c3ccc(S(C)(=O)=O)cc3F)[C@H](C)C2)c(F)c1 [Compound 76, ((3R,5R)-4-(2-fluoro-4-(methylsulfonyl)benzoyl)-3,5-dimethylpiperazin-1-yl)(2-fluoro-4-methoxyphenyl)methanone] | 16.7 µM |
| COc1ccc(C(=O)N2[C@H](C)CN(C(=O)c3c[nH]c4ccccc34)C[C@H]2C)c(F)c1 [Compound 77, ((2R,6R)-4-(1H-indole-3-carbonyl)-2,6-dimethylpiperazin-1-yl)(2-fluoro-4-methoxyphenyl)methanone] | 18.9 µM |
| COc1ccc(C(=O)N2[C@H](C)CN(C(=O)Cc3c(C)[nH]c4ccccc34)C[C@H]2C)c(F)c1 [Compound 78, 1-((3R,5R)-4-(2-fluoro-4-methoxybenzoyl)-3,5-dimethylpiperazin-1-yl)-2-(2-methyl-1H-indol-3-yl)ethanone] | 19.2 µM |
| COc1ccc(C(=O)N2C[C@@H](C)N(C(=O)c3ccc(OC)c(C)c3)[C@H](C)C2)c(F)c1 [Compound 79, ((2R,6R)-4-(2-fluoro-4-methoxybenzoyl)-2,6-dimethylpiperazin-1-yl)(4-methoxy-3-methylphenyl)methanone] | 22.2 µM |
| COc1ccc(C(=O)N2C[C@@H](C)N(C(=O)c3ccc(-c4ccn(C)n4)cc3)[C@H](C)C2)c(F)c1 [Compound 80, ((3R,5R)-3,5-dimethyl-4-(4-(1-methyl-1H-pyrazol-3-yl)benzoyl)piperazin-1-yl)(2-fluoro-4-methoxyphenyl)methanone] | 22.9 µM |
| COc1ccc(C(=O)N2[C@H](C)CN(C(=O)c3c(C)cc(OC)cc3F)C[C@H]2C)c(F)c1 [Compound 81, ((2R,6R)-4-(2-fluoro-4-methoxy-6-methylbenzoyl)-2,6-dimethylpiperazin-1-yl)(2-fluoro-4-methoxyphenyl)methanone] | 25.8 µM |
| COc1ccc(C(=O)N2[C@H](C)CN(C(=O)c3cc4c(OC)ccc(OC)c4[nH]3)C[C@H]2C)c(F)c1 [Compound 82, (4,7-dimethoxy-1H-indol-2-yl)((3R,5R)-4-(2-fluoro-4-methoxybenzoyl)-3,5-dimethylpiperazin-1-yl)methanone] | 26.4 µM |
| COc1ccc(C(=O)N2[C@H](C)CN(C(=O)c3ccc4ccn(C)c4c3)C[C@H]2C)c(F)c1 [Compound 83, ((2R,6R)-2,6-dimethyl-4-(1-methyl-1H-indole-6-carbonyl)piperazin-1-yl)(2-fluoro-4-methoxyphenyl)methanone] | 31 µM |
| COc1ccc(OC)c2[nH]c(C(=O)N3[C@H](C)CN(C(=O)Cc4cc5ccccc5[nH]4)C[C@H]3C)cc12 [Compound 84, 1-((3R,5R)-4-(4,7-dimethoxy-1H-indole-2-carbonyl)-3,5-dimethylpiperazin-1-yl)-2-(1H-indol-2-yl)ethanone] | 32.1 µM |
| COc1ccc(C(=O)N2C[C@@H](C)N(C(=O)c3cccc(O)c3)[C@H](C)C2)c(F)c1 [Compound 85, ((2R,6R)-4-(2-fluoro-4-methoxybenzoyl)-2,6-dimethylpiperazin-1-yl)(3-hydroxyphenyl)methanone] | 34.1 µM |
| COc1ccc(C(=O)N2CCN(C(=O)c3ccc(OC)cc3F)C(C)C2C)c(F)c1 (stereo not drawn) [Compound 86, (2,3-dimethylpiperazine-1,4-diyl)bis((2-fluoro-4-methoxyphenyl)methanone)] | 36.1 µM |
| COc1ccc(C(=O)N2[C@H](C)CN(C(=O)c3c[nH]c4ccc(F)cc34)C[C@H]2C)c(F)c1 [Compound 87, (5-fluoro-1H-indol-3-yl)((3R,5R)-4-(2-fluoro-4-methoxybenzoyl)-3,5-dimethylpiperazin-1-yl)methanone] | 37.7 µM |
| COc1ccc(C(=O)N2[C@H](C)CN(C(=O)Cc3n[nH]c4ccccc34)C[C@H]2C)c(F)c1 [Compound 88, 1-((3R,5R)-4-(2-fluoro-4-methoxybenzoyl)-3,5-dimethylpiperazin-1-yl)-2-(1H-indazol-3-yl)ethanone] | 38.2 µM |
| COc1ccc(C(=O)N2[C@H](C)CN(C(=O)Cc3c[nH]c4cccnc34)C[C@H]2C)c(F)c1 [Compound 89, 1-((3R,5R)-4-(2-fluoro-4-methoxybenzoyl)-3,5-dimethylpiperazin-1-yl)-2-(1H-pyrrolo[3,2-b]pyridin-3-yl)ethanone] | 42.7 µM |
| COc1ccc(C(=O)N2C[C@@H](C)N(C(=O)c3ccc(-c4nnn[nH]4)cc3)[C@H](C)C2)c(F)c1 [Compound 90, ((3R,5R)-4-(4-(1H-tetrazol-5-yl)benzoyl)-3,5-dimethylpiperazin-1-yl)(2-fluoro-4-methoxyphenyl)methanone] | 45 µM |
